What was measured:
Type in all cases: cell-based
K. pneumoniae = test: paper disc corrected zone of inhibition (CZOI) on Mueller Hinton agar
Method: (§1) The compounds tested in Example 1 were tested to determine their capacity to inhibit the growth of a variety of Gram-negative bacteria, Gram-positive bactgeria, fungi and yeast. In an exemplary method, Mueller Hinton agar plates were streaked with 500 μL of a 10^5 colony-forming units/mL culture and allowed to dry for at least one minute. A sterile paper disc (6 mm diameter) was then placed in the middle of each plate using sterile forceps. Twenty microliters of a solution of a known concentration of a test compound in filter-sterilized 95% ethanol were pipetted onto each test plate. Two streaked plates served as positive inhibitory controls and contained 6 mm sterile paper discs with standard tetracycline solutions. Two additional plates served as negative inhibition controls and each contained 6 mm sterile paper discs with 20 μL of filter-sterilized 95% ethanol. Two more plates served as positive growth controls and contained no paper disc or added antibacterial agent. The plates were incubated at 32.5±2° C. for 24±4 hours, after which the corrected zone of inhibition (“CZOI”) was determined as follows: For each plate, the length Y2 and width X2 of the test sample (paper disc) and length Y1 and width X1 of the clear zone were measured (FIG. 1). The CZOI was calculated from these values as shown by the equation below: [formula]

A. brasiliensis = test: as above
Method: as §1

P. aeroginosa = test: as above
Method: as §1

C. striatum = test: as above
Method: as §1

S. epidermidis = test: as above
Method: as §1

E. coli = test: as above
Method: as §1

C. albicans = test: as above
Method: as §1

S. aureus = test: as above
Method: as §1

E. faecalis = test: as above
Method: as §1

P. acnes = test: agar dilution method: growth index and MIC on P. acnes (single compounds and combinations); parameters: key to Growth Index Plate 1 / Growth Index Plate 2 / Growth Index Plate 3 / Growth Index Avg: +++: confluent growth (comparable to control); ++: less confluent growth; +: marked reduction in growth to multiple tiny, single colonies; −: no growth present
Method: Several compounds including fatty acids such as DGLA, 15-OHEPA, and 15-HETrE were tested to determine their capacity to inhibit the growth of P. acnes. In an exemplary method, an agar dilution method was used to determine the minimum inhibitory concentration (MIC) of each tested compound. Briefly, the agar dilution method involved preparing a series of concentrations of each compound (e.g., nicotinamide, benzoyl peroxide, adapalene, metronidazole, DGLA, 15-OHEPA, and 15-HETrE) in a Reinforced Clostridial Agar (RCA) media that facilitates growth of P. acnes under anaerobic conditions. An inoculum of P. acnes was prepared by incubation of P. acnes for approximately seven days at 35-37° C. to achieve a ≧1.0 OD600 inoculum of P. acnes in RCM broth. A portion of this inoculum was then added to the surface of each plate as a 10 μL spot and incubated at 35-37° C. for 72 hours or more. Growth of P. acnes was then observed and compared to control plates in which no compound has been added, and positive inhibition plates prepared with erythromycin. […] The growth of P. acnes in the presence of nicotinamide, benzoyl peroxide, adapalene, metronidazole, DGLA, 15-OHEPA, and 15-HETrE was determined with varying concentrations of the compound (see, Table 2). Next, the MIC was determined as the concentration at which a marked reduction (+) occurs in the appearance of growth on the test plate (as per Clinical and Laboratory Standards Institute M11-A7). The compounds tested singly in Example 1 were tested in combination with one another to determine the capacity of the combination to inhibit the growth of P. acnes. In an exemplary method, the MIC was determined for each of the combination as described in Example 1. Briefly, test combinations included DGLA with nicotinamide, benzoyl peroxide, adapalene, or metronidazole; 15-HETrE with nicotinamide, benzoyl peroxide, adapalene, or metronidazole; and 15-OHEPA with nicotinamide, benzoyl peroxide, adapalene, or metronidazole. The tables below show the growth of P. acnes in the presence of 0.4 or 1.0 mg/mL DGLA with varying concentrations of nicotinamide, benzoyl peroxide, adapalene, or metronidazole (Table 3); the growth of P. acnes in the presence of 0.01 or 0.05 mg/mL 15-HETrE with varying concentrations of nicotinamide, benzoyl peroxide, adapalene, or metronidazole (Table 5); and the growth of P. acnes in the presence of 0.5 or 0.1 mg/mL 15-OHEPA with varying concentrations of nicotinamide, benzoyl peroxide, adapalene, or metronidazole (Table 7).

CCCCCC(O)/C=C/C=C\C/C=C\CCCCCCC(=O)O (stereo not drawn) [15-HETrE, 15-Hydroxy-eicosa-8(Z),11(Z),13 (E)-trienoic acid]
Average CZOI (K. pneumoniae; 0.005 mg/mL): 2.5 mm | Average CZOI (K. pneumoniae; 0.01 mg/mL): 2 mm | Average CZOI (K. pneumoniae; 0.05 mg/mL): 1 mm | Average CZOI (K. pneumoniae; 0.1 mg/mL): 1.5 mm | Average CZOI (K. pneumoniae; 0.5 mg/mL): 1 mm | Lowest Concentration With Observed Inhibition (K. pneumoniae; K. pneumoniae): 0.005 mg/mL | Most Effective Concentration Observed (K. pneumoniae; K. pneumoniae): 0.005 mg/mL | Average CZOI (A. brasiliensis; 0.005 mg/mL): 1.75 mm | Average CZOI (A. brasiliensis; 0.01 mg/mL): 1 mm | Average CZOI (A. brasiliensis; 0.05 mg/mL): 1.25 mm | Average CZOI (A. brasiliensis; 0.1 mg/mL): 2.25 mm | Average CZOI (A. brasiliensis; 0.5 mg/mL): 3 mm | Lowest Concentration With Observed Inhibition (A. brasiliensis; A. brasiliensis): 0.005 mg/mL | Most Effective Concentration Observed (A. brasiliensis; A. brasiliensis): 0.5 mg/mL | Average CZOI (P. aeroginosa; 0.005 mg/mL): 1.5 mm | Average CZOI (P. aeroginosa; 0.01 mg/mL): 1.5 mm | Average CZOI (P. aeroginosa; 0.05 mg/mL): 1 mm | Average CZOI (P. aeroginosa; 0.1 mg/mL): 1.5 mm | Average CZOI (P. aeroginosa; 0.5 mg/mL): 1 mm | Lowest Concentration With Observed Inhibition (P. aeroginosa; P. aeroginosa): 0.005 mg/mL | Most Effective Concentration Observed (P. aeroginosa; P. aeroginosa): 0.005 mg/mL | Average CZOI (C. striatum; 0.005 mg/mL): 4 mm | Average CZOI (C. striatum; 0.01 mg/mL): 3.25 mm | Average CZOI (C. striatum; 0.05 mg/mL): 2.25 mm | Average CZOI (C. striatum; 0.1 mg/mL): 3.25 mm | Average CZOI (C. striatum; 0.5 mg/mL): 1.5 mm | Lowest Concentration With Observed Inhibition (C. striatum; C. striatum): 0.005 mg/mL | Most Effective Concentration Observed (C. striatum; C. striatum): 0.05 mg/mL | Average CZOI (S. epidermidis; 0.005 mg/mL): 1.75 mm | Average CZOI (S. epidermidis; 0.01 mg/mL): 3 mm | Average CZOI (S. epidermidis; 0.05 mg/mL): 1 mm | Average CZOI (S. epidermidis; 0.1 mg/mL): 1 mm | Average CZOI (S. epidermidis; 0.5 mg/mL): 1.75 mm | Lowest Concentration With Observed Inhibition (S. epidermidis; S. epidermidis): 0.005 mg/mL | Most Effective Concentration Observed (S. epidermidis; S. epidermidis): 0.01 mg/mL | Average CZOI (E. coli; 0.005 mg/mL): 1.5 mm | Average CZOI (E. coli; 0.01 mg/mL): 2 mm | Average CZOI (E. coli; 0.05 mg/mL): 1 mm | Average CZOI (E. coli; 0.1 mg/mL): 1.25 mm | Average CZOI (E. coli; 0.5 mg/mL): 1 mm | Lowest Concentration With Observed Inhibition (E. coli; E. coli): 0.005 mg/mL | Most Effective Concentration Observed (E. coli; E. coli): 0.01 mg/mL | Average CZOI (C. albicans; 0.005 mg/mL): 2 mm | Average CZOI (C. albicans; 0.01 mg/mL): 1.75 mm | Average CZOI (C. albicans; 0.05 mg/mL): 1.25 mm | Average CZOI (C. albicans; 0.1 mg/mL): 1.5 mm | Average CZOI (C. albicans; 0.5 mg/mL): 1.25 mm | Lowest Concentration With Observed Inhibition (C. albicans; C. albicans): 0.005 mg/mL | Most Effective Concentration Observed (C. albicans; C. albicans): 0.005 mg/mL | Average CZOI (S. aureus; 0.005 mg/mL): 2 mm | Average CZOI (S. aureus; 0.01 mg/mL): 2.5 mm | Average CZOI (S. aureus; 0.05 mg/mL): 0.75 mm | Average CZOI (S. aureus; 0.1 mg/mL): 1.75 mm | Average CZOI (S. aureus; 0.5 mg/mL): 1 mm | Lowest Concentration With Observed Inhibition (S. aureus; S. aureus): 0.005 mg/mL | Most Effective Concentration Observed (S. aureus; S. aureus): 0.01 mg/mL | Average CZOI (E. faecalis; 0.005 mg/mL): 3.75 mm | Average CZOI (E. faecalis; 0.01 mg/mL): 5.75 mm | Average CZOI (E. faecalis; 0.05 mg/mL): 3.75 mm | Average CZOI (E. faecalis; 0.1 mg/mL): 3.25 mm | Average CZOI (E. faecalis; 0.5 mg/mL): 2.75 mm | Lowest Concentration With Observed Inhibition (E. faecalis; E. faecalis): 0.005 mg/mL | Most Effective Concentration Observed (E. faecalis; E. faecalis): 0.01 mg/mL | effect on growth of P. acnes on its own (P. acnes; 0.01 mg/ml): no effect on its own | Growth Index Avg (P. acnes; varied compound 0.00001 mg/mL): +++ | Growth Index Plate 1 (P. acnes; varied compound 0.00001 mg/mL): +++ | Growth Index Plate 2 (P. acnes; varied compound 0.00001 mg/mL): +++ | Growth Index Plate 3 (P. acnes; varied compound 0.00001 mg/mL): +++ | Growth Index Avg (P. acnes; varied compound 0.0001 mg/mL): +++ | Growth Index Plate 1 (P. acnes; varied compound 0.0001 mg/mL): +++ | Growth Index Plate 2 (P. acnes; varied compound 0.0001 mg/mL): +++ | Growth Index Plate 3 (P. acnes; varied compound 0.0001 mg/mL): +++ | Growth Index Avg (P. acnes; varied compound 0.001 mg/mL): +++ | Growth Index Plate 1 (P. acnes; varied compound 0.001 mg/mL): +++ | Growth Index Plate 2 (P. acnes; varied compound 0.001 mg/mL): +++ | Growth Index Plate 3 (P. acnes; varied compound 0.001 mg/mL): +++ | Growth Index Avg (P. acnes; varied compound 0.01 mg/mL): ++ | Growth Index Plate 1 (P. acnes; varied compound 0.01 mg/mL): ++ | Growth Index Plate 2 (P. acnes; varied compound 0.01 mg/mL): +++ | Growth Index Plate 3 (P. acnes; varied compound 0.01 mg/mL): ++ | Growth Index Avg (P. acnes; varied compound 0.05 mg/mL): − | Growth Index Plate 1 (P. acnes; varied compound 0.05 mg/mL): − | Growth Index Plate 2 (P. acnes; varied compound 0.05 mg/mL): − | Growth Index Plate 3 (P. acnes; varied compound 0.05 mg/mL): −

— patent US20140171358A1, “ANTIMICROBIAL COMPOSITIONS COMPRISING DGLA AND NEOMYCIN SULFATE AND METHODS OF USE THEREOF” (Dignity Sciences Limited, priority 2012, published 2014)
